Legend:
[1] = test system: patients with non-cirrhotic, non-alcoholic steatohepatitis; assay: Randomized placebo-controlled clinical trial in non-alcoholic steatohepatitis; assay type: in vivo, humans; details: at 24 weeks; 25 mg daily orally vs placebo; 95% CI −45 to −3
Protocol: A multicenter, double-blind, placebo-controlled, parallel group, randomized clinical trial was conducted in patients with non-cirrhotic, non-alcoholic steatohepatitis to assess treatment with obeticholic acid given orally (25 mg daily) or placebo for 72 weeks. Patients were randomly assigned 1:1 using a computer-generated, centrally administered procedure, stratified by clinical center and diabetes status. The primary outcome measure was improvement in centrally scored liver histology defined as a decrease in non-alcoholic fatty liver disease activity score by at least 2 points without worsening of fibrosis from baseline to the end of treatment. Change in alanine aminotransferase at 24 weeks was measured: relative change in alanine aminotransferase −24%, 95% CI −45 to −3.
Patients were enrolled in the study according to the following inclusion criteria: 18 years or older at the time of screening, histological evidence of definite or borderline non-alcoholic steatohepatitis based upon a liver biopsy obtained 90 days or less before randomization, and a histological non-alcoholic fatty liver disease (NAFLD) activity score of 4 or more with a score of 1 or more in each component of the score (steatosis scored 0-3, ballooning 0-2, and lobular inflammation 0-3). Grading and staging of biopsies for the purposes of enrollment were carried out at the site of enrollment. […]

[2] = test system: APOE*3Leiden.CETP transgenic mice on high fat diet; assay: Diet induced NASH in APOE*3Leiden.CETP mice, hepatic inflammation score; assay type: in vivo
Protocol: This experiment was performed to evaluate the effects of OCA and fenofibrate, alone or in combination, on the development of diet induced NASH and liver fibrosis in APOE*3Leiden.CETP transgenic mice. Hepatic gene expression profiling and subsequent pathway analysis were performed to determine whether the combination regulates novel genes not regulated by either monotherapy treatment, and/or more strongly regulates genes also impacted by the monotherapy.
Male APOE*3Leiden.CETP transgenic mice (9-21 weeks old) were obtained and housed 2-5 mice per cage. The mice were fed a high fat diet containing 24% lard and 1% (w/w) cholesterol. The run in period was 15 weeks on the high fat diet. At week 16, mice were matched based on age, body weight, plasma cholesterol and triglycerides after 4 h fasting.
• Mice (n=15) were fed a high fat diet during the run in weeks 0 to 14. Group 2: HFC control group • Mice (n=15) were fed a high fat diet from weeks 0 to 24. Group 3: HFC+OCA • Mice (n=15) were fed a high fat diet supplemented with OCA at a dose of 10 mg/kg once daily from week 16 to 24. Group 4: HFC+low dose fenofibrate • Mice (n=15) were fed a high fat diet supplemented with fenofibrate at a dose of 10 mg/kg once daily from week 16 to 24. Group 5: HFC+high dose fenofibrate • Mice (n=15) were fed a high fat diet supplemented with fenofibrate at a dose of 40 mg/kg once daily from week 16 to 24. Group 6: HFC+OCA+low dose fenofibrate • Mice (n=15) were fed a high fat diet supplemented with OCA at a dose of 10 mg/kg once daily and fenofibrate at a dose of 10 mg/kg once daily from week 16 to 24. Group 7: HFC+OCA+high dose fenofibrate • Mice (n=15) were fed a high fat diet supplemented with OCA at a dose of 10 mg/kg once daily and fenofibrate at a dose of 40 mg/kg once daily from week 16 to 24. Group 8: Chow control group • Mice (n=8) were feed chow from week 0 to 24. Study Design
Mice were fed a high fat chow (HFC) diet for […]. After 15 weeks on the HFC diet, HFC mice were matched into 7 groups based on age, body weight, plasma cholesterol and triglycerides after 4 h fasting. Mice were treated with of OCA and fenofibrate, alone or in combination beginning at week 15 and sacrificed at week 25 in an unfasted state. One week before sacrifice, mice were labeled with D20, by i.p. injection of a bolus of D20 and subsequent addition of 4% D20 to the drinking water. Plasma (EDTA) was obtained by heart puncture and stored at −70° C. The liver was weighed and 4 pieces of liver were isolated: 1 piece (medial lobe) was fixed in 10% formalin (for NASH and fibrosis histology) and 3 pieces (sinister lobe) were snap-frozen in liquid N2 and stored individually at −70° C.
Inflammation is a key feature of NASH. Inflammation was categorized according to the procedure by Liang et al., PlosOne 2014 Dec. 9(12) and scored by quantitatively analyzing the number of inflammatory cells aggregates. In particular, the level of inflammation was evaluated by counting the number of inflammatory foci per field using a 100× magnification (view size of 3.1 mm2; average of five different fields).

## CC[C@H]1[C@@H](O)[C@@H]2[C@H](CC[C@]3(C)[C@@H]([C@H](C)CCC(=O)O)CC[C@@H]23)[C@@]2(C)CC[C@@H](O)C[C@@H]12 [OCA, 3α,7α-dihydroxy-6α-ethyl-5β-cholan-24-oic acid]
[1]
  relative change in alanine aminotransferase: −24%
[2]; OCA 10 mg/kg and/or low dose fenofibrate 10 mg/kg, in high fat diet
  Inflammation (# of inflammatory cell foci): 29.1 ± 22.7
[2]; after 10 weeks, OCA 10 mg/kg and/or fenofibrate 10 mg/kg, relative to vehicle control
  effect on number of inflammatory cell foci: neither OCA (10 mg/kg) nor fenofibrate (10 mg/kg) reduced

From patent US12337003B2, “Pharmaceutical compositions for combination therapy” (Intercept Pharmaceuticals, Inc., priority 2015, dated 2025)
